Measured values reported in patent US20170247366A1, “SUBSTITUTED 4-ALKOXYPICOLINAMIDE ANALOGS AS MGLUR5 NEGATIVE ALLOSTERIC MODULATORS AND METHODS OF MAKING AND USING THE SAME” (VANDERBILT UNIVERSITY, priority 2014, published 2017).

Target: T1, rat mGluR5 (Rattus norvegicus, UniProt P31424)
T1 construct: expressed in transfected cells
Assay: mGluR5 calcium flux assay in HEK 293A cells, negative allosteric modulation of glutamate EC80 response
Type: cell-based
Details: for IC50: HEK cells transfected with rat mGluR5, glutamate EC80, ± is standard error of at least three experiments; for % Glu Max at single concentration: average Glu Max at 30 μM, CRC does not hit a plateau
Method: HEK 293A cells stably expressing either rat or human mGluR5 were plated in black-walled, clear-bottomed, poly-D-lysine coated 384-well plates in 20 μL of assay medium (DMEM containing 10% dialyzed FBS, 20 mM HEPES, 100 units/mL penicillin/streptomycin plus 250 ng/mL Fungizone, and 1 mM sodium pyruvate) at a density of 20K cells/well. The cells were grown overnight at 37° C. in the presence of 5% CO2. The next day, medium was removed and the cells incubated with 20 μL of 2.3 µM Fluo-4, AM prepared as a 2.3 mM stock in DMSO and mixed in a 1:1 ratio with 10% (w/v) pluronic acid F-127 and diluted in assay buffer (Hank's balanced salt solution, 20 mM HEPES, and 2.5 mM probenecid) for 45 minutes at 37° C. Dye was removed, 20 μL of assay buffer was added, and the plate was incubated for 5 minutes at room temperature.
Ca^2+ flux was measured using the Functional Drug Screening System (FDSS7000, Hamamatsu, Japan). After establishment of a fluorescence baseline for about 3 seconds, the compounds of the present invention were added to the cells, and the response in cells was measured. 2.3 minutes later an EC20 concentration of the mGluR5 receptor agonist glutamate was added to the cells, and the response of the cells was measured for 1.9 minutes; an EC80 concentration of agonist was added and readings taken for an additional 1.7 minutes. All test compounds were dissolved and diluted to a concentration of 10 mM in 100% DMSO. Compounds were then serially diluted 1:3 in DMSO into 10 point concentration response curves, transferred to daughter plates, and further diluted into assay buffer to a 2× stock. Calcium fluorescence measures were recorded as fold over basal fluorescence; raw data was then normalized to the maximal response to glutamate. Antagonism of the agonist response of the mGluR5 receptor in the present invention was observed as a decrease in response to nearly maximal concentrations of glutamate in the presence of compound compared to the response to glutamate in the absence of compound.
The raw data file containing all time points was used as the data source in the analysis template. This was saved by the FDSS as a tab-delimited text file. Data were normalized using a static ratio function (F/F0) for each measurement of the total 360 values per well divided by each well's initial value. Data were then reduced to peak amplitudes (Max−Initial Min) using a time range that starts approximately 3 seconds prior to the glutamate EC20/EC80 addition and continues for approximately 90-120 seconds. This is sufficient time to capture the peak amplitude of the cellular calcium response. Individual amplitudes were expressed as % EMax by multiplying each amplitude by 100 and then dividing the product by the mean of the amplitudes derived from the glutamate ECMax-treated wells. IC50 values for test compounds were generated by fitting the normalized values versus the log of the test compound concentration (in mol/L) using a 4 parameter logistic equation where none of the parameters were fixed. Each of the three values collected at each concentration of test compound were weighted evenly.
For NAMs with a CRC that plateaus above 10% Glu Max, the IC50 values are reported, the compound is designated a “partial NAM” and the % Glu Max is reported. […] Compounds without measurable activity are designated as “>30,000 nM” since the top concentration of compound tested in the assay is 30 µM. Exemplary data are provided in Tables 1 and 2 below.
Table 1 below lists specific compounds, experimentally determined molecular mass, and mGluR5 activity determined in a cell-based assay. The mGluR5 activity was determined using the metabotropic glutamate receptor activity assays in human embryonic kidney cells as described herein, wherein the human embryonic kidney cells were transfected with rat mGluR5. The mGluR5 activity data for some compounds are shown as the average of at least three experiments with the standard error in these cases. […]

T1 sequence (P31424 21-1203): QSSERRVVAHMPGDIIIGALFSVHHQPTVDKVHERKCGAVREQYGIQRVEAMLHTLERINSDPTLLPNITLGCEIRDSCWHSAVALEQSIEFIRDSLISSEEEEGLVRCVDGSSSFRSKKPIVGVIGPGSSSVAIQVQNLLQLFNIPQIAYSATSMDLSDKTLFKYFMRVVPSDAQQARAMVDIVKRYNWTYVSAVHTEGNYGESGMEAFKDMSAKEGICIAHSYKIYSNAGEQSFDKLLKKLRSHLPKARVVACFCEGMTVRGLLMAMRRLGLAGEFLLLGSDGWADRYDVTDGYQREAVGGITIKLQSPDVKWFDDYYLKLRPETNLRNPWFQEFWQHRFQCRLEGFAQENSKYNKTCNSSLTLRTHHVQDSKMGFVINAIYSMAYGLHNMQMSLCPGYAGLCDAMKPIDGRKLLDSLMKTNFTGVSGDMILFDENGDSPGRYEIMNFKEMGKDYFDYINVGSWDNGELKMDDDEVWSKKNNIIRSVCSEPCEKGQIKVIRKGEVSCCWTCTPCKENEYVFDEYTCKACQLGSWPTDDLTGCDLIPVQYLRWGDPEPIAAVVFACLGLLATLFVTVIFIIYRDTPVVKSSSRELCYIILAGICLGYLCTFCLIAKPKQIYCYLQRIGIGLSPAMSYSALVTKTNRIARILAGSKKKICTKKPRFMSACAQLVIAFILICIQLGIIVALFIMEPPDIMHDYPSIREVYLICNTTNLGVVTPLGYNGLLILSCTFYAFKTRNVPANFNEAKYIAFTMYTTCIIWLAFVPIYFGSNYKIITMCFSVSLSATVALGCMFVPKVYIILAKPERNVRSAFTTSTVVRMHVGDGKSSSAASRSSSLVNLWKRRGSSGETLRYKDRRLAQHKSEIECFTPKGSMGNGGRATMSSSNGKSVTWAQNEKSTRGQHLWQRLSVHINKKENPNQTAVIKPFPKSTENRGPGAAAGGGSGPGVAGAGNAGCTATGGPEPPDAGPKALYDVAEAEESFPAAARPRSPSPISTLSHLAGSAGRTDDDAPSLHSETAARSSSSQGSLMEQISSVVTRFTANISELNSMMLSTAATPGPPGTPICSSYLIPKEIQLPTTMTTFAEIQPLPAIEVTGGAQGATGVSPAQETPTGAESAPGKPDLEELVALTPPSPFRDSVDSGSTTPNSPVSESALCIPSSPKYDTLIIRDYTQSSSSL

| Compound | IC50 [nM] | other results |
| --- | --- | --- |
| Cc1cc(O[C@H]2CCOC2)cc(C(=O)Nc2nc(C)cs2)n1 | 133 ± 14 |  |
| Cc1cc(OC2CCCC2)cc(C(=O)Nc2nc(C)cs2)n1 | 149 |  |
| Cc1cc(OC2COC2)cc(C(=O)Nc2cccc(F)n2)n1 | 201 |  |
| CCCOC(=O)N1CC(Oc2cc(C)nc(C(=O)Nc3ccc(F)cn3)c2)C1 | > 10000 | % Glu Max at single concentration (rat mGluR5): 37% |
| Cc1cc(O[C@H]2CO[C@H](C)C2)cc(C(=O)Nc2ccc(F)cn2)n1 | 175 ± 21 |  |
| Cc1cc(OC2CC3(COC3)C2)cc(C(=O)Nc2ccccn2)n1 | 1680 |  |
| COc1cccc(NC(=O)c2cc(OC3COC3)cc(C)n2)n1 | 1050 |  |
| Cc1cc(OCC2CCOC2)cc(C(=O)Nc2nc(C)cs2)n1 (stereo not shown) | 200 |  |
| Cc1cc(OC2CCOCC2)cc(C(=O)Nc2nc(C)cs2)n1 | 446 |  |
| Cc1cc(OC[C@@H]2CCOC2)cc(C(=O)Nc2ccccn2)n1 | 166 |  |
| Cc1cc(O[C@H]2CO[C@H](C)C2)cc(C(=O)Nc2nc(C(F)(F)F)cs2)n1 | 5200 |  |
| Cc1cc(O[C@H]2CO[C@H](C)C2)cc(C(=O)Nc2nc(CF)cs2)n1 | 180 |  |
| CC(=O)N1CC(Oc2cc(C)nc(C(=O)Nc3nc(C)cs3)c2)C1 | 388 |  |
| COCCOCCOc1cc(C)nc(C(=O)Nc2nc(C)cs2)c1 | 954 |  |
| CCOCCOc1cc(C)nc(C(=O)Nc2ccccn2)c1 | 842 |  |
| Cc1cc(OC[C@@H]2CCOC2)cc(C(=O)Nc2nc(C)cs2)n1 | 151 ± 38 |  |
| Cc1cc(OC2C[S+]([O-])C2)cc(C(=O)Nc2ccc(F)cn2)n1 (stereo not shown) | 533 |  |
| Cc1cc(OC2CN(C(=O)CC(C)C)C2)cc(C(=O)Nc2nc(C)cs2)n1 | 1670 |  |
| Cc1cc(OCC2CCCCO2)cc(C(=O)Nc2ccccn2)n1 (stereo not shown) | 2970 |  |
| Cc1cc(OC2(C)COC2)cc(C(=O)Nc2ccc(F)cn2)n1 | 863 |  |
| COCCOc1cc(C)nc(C(=O)Nc2nc(C)cs2)c1 | 82 ± 12 |  |

Second part, led by results:

| IC50 [nM] | Compound | other results |
| --- | --- | --- |
| 71 | Cc1cc(O[C@@H]2CCOC2)cc(C(=O)Nc2nc(CF)cs2)n1 |  |
| 353 ± 83 | Cc1cc(O[C@@H]2CCCOC2)cc(C(=O)Nc2ccc(F)cn2)n1 |  |
| 4100 | Cc1cc(OC2CN(C(=O)OC(C)C)C2)cc(C(=O)Nc2ccc(F)cn2)n1 | NAM designation (rat mGluR5, CRC plateaus above 10% Glu Max): Partial NAM; % Glu Max (partial NAM, plateau of CRC) (rat mGluR5, response in presence of compound as percentage of maximal glutamate response, CRC plateaus above 10%): 42% |
| 646 | Cc1cc(OCC2CCO2)cc(C(=O)Nc2ccccn2)n1 (stereo not shown) |  |
| 4930 | CO[C@@H](C)COc1cc(C)nc(C(=O)Nc2ccc(F)cn2)c1 |  |
| 2130 | COC[C@@H](C)Oc1cc(C)nc(C(=O)Nc2ccccn2)c1 |  |
| 684 ± 107 | Cc1cc(O[C@H]2CO[C@@H](C)C2)cc(C(=O)Nc2nc(C)cs2)n1 |  |
| 742 | Cc1cc(OC2CS(=O)(=O)C2)cc(C(=O)Nc2ccc(F)cn2)n1 |  |
| 932 | COC[C@H](C)Oc1cc(C)nc(C(=O)Nc2nc(C)cs2)c1 |  |
| 1560 | Cc1cc(OC2CCOCC2)cc(C(=O)Nc2ccccn2)n1 |  |
| 1420 | Cc1cc(OC2CCCCC2)cc(C(=O)Nc2ccccn2)n1 |  |
| 7680 | Cc1cc(OCC2COCCO2)cc(C(=O)Nc2ccc(F)cn2)n1 (stereo not shown) |  |
| > 10000 | Cc1cc(OC2CN(C(=O)N(C)C)C2)cc(C(=O)Nc2nc(C)cs2)n1 | % Glu Max at single concentration (rat mGluR5): 31% |
| 1530 | Cc1cc(OC2COC2)cc(C(=O)Nc2ccc(Cl)cn2)n1 |  |
| 3620 | Cc1cc(OC2CN(S(=O)(=O)C(C)C)C2)cc(C(=O)Nc2nc(C)cs2)n1 |  |
| 77 | Cc1cc(OC2CCSC2)cc(C(=O)Nc2nc(C)cs2)n1 (stereo not shown) |  |
| 899 | Cc1cc(O[C@H]2CO[C@H](C)C2)cc(C(=O)Nc2nc(C3CC3)cs2)n1 |  |
| 611 | CCC(=O)N1CC(Oc2cc(C)nc(C(=O)Nc3nc(C)cs3)c2)C1 |  |
| 616 | Cc1cc(OCC2COCCO2)cc(C(=O)Nc2nc(C)cs2)n1 (stereo not shown) |  |
| 75 | Cc1cc(OC2CCSC2)cc(C(=O)Nc2ccc(F)cn2)n1 (stereo not shown) |  |
| > 30000 | Cc1cc(OC2CN(S(=O)(=O)CC(C)C)C2)cc(C(=O)Nc2ccc(F)cn2)n1 |  |
| 70 ± 11 | Cc1cc(O[C@@H]2CCCOC2)cc(C(=O)Nc2nc(C)cs2)n1 |  |
| 5720 | Cc1cc(OCC2CCOCC2)cc(C(=O)Nc2ccc(F)cn2)n1 |  |
| 59 ± 7 | Cc1cc(OC2CCC2)cc(C(=O)Nc2nc(C)cs2)n1 |  |
